From patent US20240318134A1, “IN VITRO GENERATION OF ORGANIZED 3D CELL STRUCTURES INCLUDING HEAD-TRUNK EMBRYO-LIKE STRUCTURES, USING EPIGENETIC REMODELING FACTORS-MICROFLUIDIC PLATFORM SUITABLE FOR THEIR GENERATION” (INSTITUT PASTEUR, priority 2021, published 2024)

What was measured:
Nanog = Nanog expression at D8 after a round of hypoSUMOylation followed by 5-azacytidine treatment; assay type: cell-based, mouse; conditions: 0.1 μM for 5 days after the first wave of hypoSUMOylation
Dnmt3a = Dnmt3a gene expression upon ML-792 treatment (siSall4 experiment); assay type: cell-based, mouse; conditions: ML-792 treatment for 48 h; induction reduced by Sall4 knockdown
Experimental: (§1) cDNA was generated with a High-Capacity cDNA Reverse Transcription Kit (Applied Biosystems #4368814) from 500 ng to […] of total RNA purified by Trizol extraction. Quantitative real-time PCR analysis was performed with SYBR Green PCR master mix (Applied Biosystems #4309155) and the primer sets indicated in Supplementary Table 7 using cDNA or genomic DNA (local ChIP). Quantitative real-time PCR analysis was performed on a CFX96 Touch Real-Time PCR Detection System (Bio-Rad) or a QuantStudio 6 Flex Real-Time PCR System (Applied Biosystems).

mouse ESCs (ES R1 cells) = experiment: Generating adherent spheroids from mouse ESCs by two 48 h rounds of SUMO E1 inhibitor followed by medium switch; assay type: cell-based; conditions: two rounds of 48 h treatment in serum+Lif, then switch to N2B27+Lif; ML-792 2.5 μM, TAK-981 0.1 μM
Experimental: • Using ML-792 as hypoSUMOylation agent (SUMO E1 enzyme inhibitor): ESCs (ES R1 cells-129X1×129S1—ATCC) were dissociated with Trypsin-EDTA and plated (2.5 million cells in 100 mm dish) in serum+Lif medium supplemented with 2.5 μM ML-792 (Takeda Pharmaceuticals International Co.). Medium was replaced the next day to refresh treatment. After 48 h of treatment, plates were rinsed twice with PBS then cells were allowed to recover in serum+Lif. 5 days after the end of the first round, cells were similarly counted and plated for a 2nd round of ML-792. After 48 h of treatment, plates were rinsed twice with PBS then cells were allowed to recover in N2B27+Lif medium. […] By contrast the following specific parameters are taken into consideration with TAK-981:
On Day 1: first round. 500 000 ES R1 cells were plated per well well of a gelatin-coated 6-well plate in 2 ml of serum+Lif medium, supplemented with 0.1 μM of TAK-981. On Day 2, medium was replaced (aspirated) to refresh treatment (2 mL of Serum+Lif medium, supplemented with 0.1 μM of TAK-981 were added). After 48 h of treatment, on Day 3, the medium was aspirated and wells were rinsed twice with PBS then cells were allowed to recover in 2 ml of added serum+Lif. 6 days after the end of the first round, cells were similarly counted and plated for a 2nd round of TAK-981 (for example starting on Day 9 from the start of first round). […]

[1] = system: whole genome methylated CG fraction; experiment: Genome-wide DNA methylation profiling (Methyl-seq) during the hypoSUMOylation protocol; assay type: cell-based, mouse; conditions: D1 to D10 of the hypoSUMOylation protocol
Experimental: DNA was extracted and purified from 2 million cells for each condition with the Quick-DNA Midiprep Plus Kit (Zymo Research D4075) following manufacturer's instructions. DNA was quantified with a NanoDrop ND-1000 (ThermoFisher Scientific). The NEBNext Enzymatic Methyl-seq Kit (New England Biolabs #E7120S) was used to prepare libraries for detection of 5-mC and 5-hmC. 200 ng of DNA from each sample were sheared to 275 bp fragments with an E220 Focused-ultrasonicator (Covaris) with the following settings: Duty Factor, 10%—Peak Incident Power, 175 W—Cycles per burst, 200—Duration, 100 sec. Fragment size was validated by a 4200 TapeStation System (Agilent Technologies). The NEBNext Enzymatic Methyl-seq Kit workflow was then followed, using the sodium hydroxide option for the denaturation step. The size distribution and concentration of the libraries was determined by TapeStation. The libraries were sequenced on an Illumina HiSeq4000 sequencer as paired-end 100 base reads following Illumina's instructions. […]
Methyl-seq data were processed with the Bismark pipeline^62 using bowtie2 aligner^64 with the default parameters. Biological triplicates were merged and CG sites with at least 5 reads were kept for downstream analyses. Methylated and unmethylated CG sites were counted within predetermined windows (bin or interval) and a binomial test was used to compare different timepoints or regions. […]

[2] = system: global level of SUMOylation in mouse ESCs; experiment: Immunoblots of SUMO1 and SUMO2/3 conjugates in treated ESCs; assay type: cell-based; conditions: D3 and D10, after first and second 48 h treatment; restored at D8 after withdrawal
Experimental: Cells were collected and directly lysed in Laemmli buffer (Bio-Rad #161-0747). Proteins were quantified using Pierce 660 nm Protein Assay (ThermoFisher Scientific #22662) according to manufacturer's instructions. Equal amounts of proteins were loaded on gels and good equilibration of the different samples was assessed by Ponceau staining after membrane transfer. Antibodies against SUMO1 (1:1000, Abcam #ab32058), Actin (1:4000, Sigma #A1978), SUMO2/3 (1:1000, Abcam #ab81371), Gapdh (1:1000, Cell Signaling #2118), Dnmt1 (1:1000, Abcam #ab13537), Dnmt3a (1:1000, Abcam #ab2850), Dnmt3b (1:1000, Abcam #ab2851), Tet2 (1:1000, Cell Signaling #36449S), Histone H3 (1:5000, Abcam #ab24834) were used according to standard protocols and suppliers' recommendations.

[3] = system: mouse ESC-derived spheroids; experiment: Marker expression and cell types of spheroids prepared with SUMO E1 inhibitor; assay type: cell-based; conditions: spheroids prepared with TAK-981; same as with ML-792
Experimental: On Day 1: first round. 500 000 ES R1 cells were plated per well well of a gelatin-coated 6-well plate in 2 ml of serum+Lif medium, supplemented with 0.1 μM of TAK-981. On Day 2, medium was replaced (aspirated) to refresh treatment (2 mL of Serum+Lif medium, supplemented with 0.1 μM of TAK-981 were added). After 48 h of treatment, on Day 3, the medium was aspirated and wells were rinsed twice with PBS then cells were allowed to recover in 2 ml of added serum+Lif. 6 days after the end of the first round, cells were similarly counted and plated for a 2nd round of TAK-981 (for example starting on Day 9 from the start of first round). On Day 9, 500 000 ES R1 cells were seeded per well on a gelatin-coated 6-well plate in 2 mL of Serum+Lif medium, supplemented with 0.1 μM of TAK-981 On day 10, the medium was aspirated and 2 ml of serum+Lif medium were added, supplemented with 0.1 μM of TAK-981 After 48 h of treatment (on Day 11), the medium was aspirated and wells were rinsed twice with PBS then cells were allowed to recover in 2 ml of N2B27+Lif medium that were added. Culture was carried out in N2B27+Lif medium.
as §1

Structure (SMILES) | Nanog expression at D8 (Nanog) | Dnmt3a expression (Dnmt3a) | formation of spheroid structures (mouse ESCs (ES R1 cells)) | whole genome methylated CG fraction [1] | level of SUMO conjugates (SUMO1, SUMO2/3 immunoblot) [2] | emergence of EPI-L cell type [3] | emergence of ESC-L cell type [3] | emergence of XEN-L cell type [3] | pluripotency marker expression in spheroids [3]
Nc1ncn([C@@H]2O[C@H](CO)[C@@H](O)[C@H]2O)c(=O)n1 [5-azacytidine] | able to maintain a high level of Nanog | – | – | – | – | – | – | – | –
NS(=O)(=O)OC[C@H]1C[C@@H](Nc2ncncc2C(=O)c2ccn(Cc3cccc(Br)c3)n2)C[C@@H]1O [ML-792] | – | induction of Dnmt3a | yielded large spheroid structures on adherent plates | gradual increase of the methylated CG fraction from D1 to D10 | drop of SUMO conjugates at day 3 (D3) and D10 | – | – | – | –
Cc1sc(C(=O)c2cncnc2NC2C[C@H](COS(N)(=O)=O)[C@@H](C)C2)cc1[C@@H]1NCCc2ccc(Cl)cc21 (stereo partly shown) [TAK-981] | – | – | cells form three-dimensional adherent spheroids | – | – | Emergence of an EPI-L cell type expressing Pou3f1, Fgt5, Wnt3 | Emergence of an ESC-L cell type expressing Dppa3 | Emergence of a XEN-L cell type expressing Sox17, Gata4, Snail | Decrease of pluripotency markers Nanog, Essrb
